Patent US20220117938A1, “COMBINATON THERAPY WITH A DON PRODRUG AND AN IMMUNE CHECKPOINT INHIBITOR” (DRACEN PHARMACEUTICALS, INC., priority 2019, published 2022)

System: MC-38 tumors
Experiment: Anti-tumor efficacy of Compound 1 in the subcutaneous MC-38 murine colorectal cancer model: dose response (Example 1)
Format: in vivo, Mus musculus
Conditions: for Tumor volume (mm^3), Mean ± SEM: n = 8; for RTV at day 14 / T/C (%) / TGI (%) / Tumor Size (mm^3) at day 14: day 14; for ILS (%) / MST: endpoint tumor volume 2000 mm^3
Description: Female C57BL/6 mice were inoculated subcutaneously at right flank with MC-38 cells for tumor development. Four days after tumor inoculation, 64 mice with tumor size ranging from 50-92 mm^3 (average tumor size 63 mm^3) were selected and assigned into 8 groups using stratified randomization with 8 mice per group based upon their tumor volumes. The treatments were started from the day of randomization (defined as D0), Group 1 was treated with Vehicle (Tween 80:Ethanol:Saline—5:5:90 v/v/v), S.C. QD, Group 2 was treated with Compound 1 (0.1 mg/kg), S.C. QD, Group 3 was treated with Compound 1 (0.3 mg/kg), S.C. QD, Group 4 was treated with Compound 1 (0.5 mg/kg), S.C. QD, Group 5 was treated with Compound 1 (1 mg/kg), S.C. QD, Group 6 was treated with Compound 1 (3 mg/kg), S.C. QD*5 days followed by Compound 1 (1 mg/kg), S.C. QD*9 days (2 cycles), Group 7 was treated with Compound 1 (1 mg/kg), S.C. QD*5 days followed by Compound 1 (0.3 mg/kg), S.C. QD*9 days (2 cycles) and Group 8 was treated with Compound 1 (0.15 mg/kg), S.C. BID. The tumor sizes were measured three times per week during the treatment. The entire study was terminated on D74 after start of the treatment.
Animal Species: Mus musculus; Strain: C57BL/6; Age: 6-8 weeks; Sex: female; Body weight (at treatment start): 17-21 g.
The MC-38 tumor cells were maintained in vitro as a monolayer culture in DMEM medium supplemented with 10% heat inactivated fetal bovine serum and 100 μg/mL penicillin streptomycin at 37° C. in an atmosphere of 5% CO2 in air. The tumor cells were routinely subcultured twice weekly by trypsin-EDTA treatment. The cells growing to a confluency around 70%-80% were harvested and counted for tumor inoculation. The cultured MC-38 were harvested, re-suspended in base medium at a density of 1×10^7 cells/mL with viability>90%. Each mouse was inoculated subcutaneously at the right flank with 1×10^6 in 0.1 ml base medium for tumor development.
The treatments were started on day 4 after tumor inoculation when the tumor size reached 50-92 mm^3 (average tumor size 63 mm^3). Each group consisted of 8 tumor bearing mice. The testing article was administrated at a dosing volume of […] to the mice according to the predetermined regimen shown in Table 1-1. Testing article formulations were prepared according to standard procedures. Details regarding tumor measurements and endpoints, and statistical analysis are provided in EXAMPLE 3.
Tumor sizes were measured three times a week in two dimensions using a caliper, and the volume expressed in mm^3 using the formula: V=0.5 a×b^2 where a and b are the long and short diameters of the tumor, respectively. The tumor sizes were then used for the calculations of both tumor growth inhibition (TGI) and T/C values.
TGI is calculated for each group using the formula: […]
TVTreatment_DayN is the average tumor volume of a treatment group on a given day, TVTreatment_Day0 is the average tumor volume of the treatment group on the first day of treatment, TVVehicle_DayN is the average tumor volume of the vehicle control group on a given day, and TVVehicle_Day0 is the average tumor volume of the vehicle group on the first day of treatment.
The T/C value (in percent) is an indication of antitumor effectiveness, T/C (%)=RTVTreatment/RTVControl×100% (RTVTreatment: the mean RTV of the treatment group; RTVControl: the mean RTV of the vehicle treated group). RTV (relative tumor volume)=TVDayN/TVDay0. TVDayN and TVDay0 is the tumor volume on day N and Day 0 respectively. T/C (%)≤42% is considered as significant antitumor activity and <10% is considered as highly significant antitumor activity by the National Cancer Institute criteria.
Animal survival curve: When an individual animal reached to the termination endpoint (TV>2000 mm^3), the mouse was euthanized. The time from treatment initiation to the termination was deemed as its survival time. Survival curve was plotted by Kaplan-Meier method. Median survival time (MST) was calculated for each group. […]

[1] = 1 & 0.3 mg/kg (1 mg/kg QDx5 then 0.3 mg/kg QDx9 S.C.)
[2] = 3 & 1 mg/kg (3 mg/kg QDx5 then 1 mg/kg QDx9 S.C.)
[3] = Treatment (0.1) mg/kg, last line of the table

CC(=O)N[C@@H](Cc1c[nH]c2ccccc12)C(=O)N[C@@H](CCC(=O)C=[N+]=[N-])C(=O)OC(C)C [Compound 1, Isopropyl (S)-2-((S)-2-acetamido-3-(1H-indol-3-yl)propanamido)-6-diazo-5-oxohexanoate]
Tumor volume (mm^3), Mean ± SEM (0.1 mg/kg S.C. QD, Day 0): 62 ± 4 mm^3
Tumor volume (mm^3), Mean ± SEM (0.1 mg/kg S.C. QD, Day 2): 91 ± 10 mm^3
Tumor volume (mm^3), Mean ± SEM (0.1 mg/kg S.C. QD, Day 4): 112 ± 11 mm^3
Tumor volume (mm^3), Mean ± SEM (0.1 mg/kg S.C. QD, Day 7): 183 ± 32 mm^3
Tumor volume (mm^3), Mean ± SEM (0.1 mg/kg S.C. QD, Day 9): 247 ± 40 mm^3
Tumor volume (mm^3), Mean ± SEM (0.1 mg/kg S.C. QD, Day 11): 368 ± 72 mm^3
Tumor volume (mm^3), Mean ± SEM (0.1 mg/kg S.C. QD, Day 14): 744 ± 154 mm^3
RTV at day 14 (0.1 mg/kg S.C. QD): 12.29 ± 7.63
T/C (%) (0.1 mg/kg S.C. QD): 40.26%
TGI (%) (0.1 mg/kg S.C. QD): 62.52%
Tumor Size (mm^3) at day 14 (0.1 mg/kg S.C. QD): 743.79 ± 153.64 mm^3
ILS (%) (0.1 mg/kg): 22%
MST (0.1 mg/kg): 19.5 days
ILS (%) (0.15 mg/kg (BID)): 88%
MST (0.15 mg/kg (BID)): 30 days
Tumor volume (mm^3), Mean ± SEM (0.15 mg/kg S.C. BID, Day 0): 63 ± 5 mm^3
Tumor volume (mm^3), Mean ± SEM (0.15 mg/kg S.C. BID, Day 2): 87 ± 6 mm^3
Tumor volume (mm^3), Mean ± SEM (0.15 mg/kg S.C. BID, Day 4): 109 ± 6 mm^3
Tumor volume (mm^3), Mean ± SEM (0.15 mg/kg S.C. BID, Day 7): 195 ± 28 mm^3
Tumor volume (mm^3), Mean ± SEM (0.15 mg/kg S.C. BID, Day 9): 237 ± 30 mm^3
Tumor volume (mm^3), Mean ± SEM (0.15 mg/kg S.C. BID, Day 11): 288 ± 43 mm^3
Tumor volume (mm^3), Mean ± SEM (0.15 mg/kg S.C. BID, Day 14): 369 ± 56 mm^3
Tumor volume (mm^3), Mean ± SEM (0.3 mg/kg S.C. QD, Day 0): 62 ± 4 mm^3
Tumor volume (mm^3), Mean ± SEM (0.3 mg/kg S.C. QD, Day 2): 76 ± 5 mm^3
Tumor volume (mm^3), Mean ± SEM (0.3 mg/kg S.C. QD, Day 4): 88 ± 7 mm^3
Tumor volume (mm^3), Mean ± SEM (0.3 mg/kg S.C. QD, Day 7): 110 ± 14 mm^3
Tumor volume (mm^3), Mean ± SEM (0.3 mg/kg S.C. QD, Day 9): 143 ± 26 mm^3
Tumor volume (mm^3), Mean ± SEM (0.3 mg/kg S.C. QD, Day 11): 140 ± 29 mm^3
Tumor volume (mm^3), Mean ± SEM (0.3 mg/kg S.C. QD, Day 14): 235 ± 80 mm^3
RTV at day 14 (0.3 mg/kg S.C. QD): 3.83 ± 3.95
T/C (%) (0.3 mg/kg S.C. QD): 12.54%
TGI (%) (0.3 mg/kg S.C. QD): 90.47%
Tumor Size (mm^3) at day 14 (0.3 mg/kg S.C. QD): 235.18 ± 79.89 mm^3
ILS (%) (0.3 mg/kg): 94%
MST (0.3 mg/kg): 31 days
Tumor volume (mm^3), Mean ± SEM (0.5 mg/kg S.C. QD, Day 0): 63 ± 5 mm^3
Tumor volume (mm^3), Mean ± SEM (0.5 mg/kg S.C. QD, Day 2): 79 ± 4 mm^3
Tumor volume (mm^3), Mean ± SEM (0.5 mg/kg S.C. QD, Day 4): 97 ± 8 mm^3
Tumor volume (mm^3), Mean ± SEM (0.5 mg/kg S.C. QD, Day 7): 112 ± 8 mm^3
Tumor volume (mm^3), Mean ± SEM (0.5 mg/kg S.C. QD, Day 9): 109 ± 7 mm^3
Tumor volume (mm^3), Mean ± SEM (0.5 mg/kg S.C. QD, Day 11): 84 ± 9 mm^3
Tumor volume (mm^3), Mean ± SEM (0.5 mg/kg S.C. QD, Day 14): 97 ± 17 mm^3
RTV at day 14 (0.5 mg/kg S.C. QD): 1.63 ± 0.88
T/C (%) (0.5 mg/kg S.C. QD): 5.33%
TGI (%) (0.5 mg/kg S.C. QD): 98.16%
Tumor Size (mm^3) at day 14 (0.5 mg/kg S.C. QD): 96.6 ± 16.6 mm^3
ILS (%) (0.5 mg/kg): 131%
MST (0.5 mg/kg): 37 days
Tumor volume (mm^3), Mean ± SEM (1 mg/kg QDx5 then 0.3 mg/kg QDx9 S.C., 2 cycles, Day 0): 63 ± 4 mm^3
Tumor volume (mm^3), Mean ± SEM (1 mg/kg QDx5 then 0.3 mg/kg QDx9 S.C., 2 cycles, Day 2): 73 ± 5 mm^3
Tumor volume (mm^3), Mean ± SEM (1 mg/kg QDx5 then 0.3 mg/kg QDx9 S.C., 2 cycles, Day 4): 85 ± 7 mm^3
Tumor volume (mm^3), Mean ± SEM (1 mg/kg QDx5 then 0.3 mg/kg QDx9 S.C., 2 cycles, Day 7): 97 ± 10 mm^3
Tumor volume (mm^3), Mean ± SEM (1 mg/kg QDx5 then 0.3 mg/kg QDx9 S.C., 2 cycles, Day 9): 101 ± 9 mm^3
Tumor volume (mm^3), Mean ± SEM (1 mg/kg QDx5 then 0.3 mg/kg QDx9 S.C., 2 cycles, Day 11): 116 ± 19 mm^3
Tumor volume (mm^3), Mean ± SEM (1 mg/kg QDx5 then 0.3 mg/kg QDx9 S.C., 2 cycles, Day 14): 119 ± 22 mm^3
Tumor volume (mm^3), Mean ± SEM (1 mg/kg S.C. QD, Day 0): 62 ± 4 mm^3
Tumor volume (mm^3), Mean ± SEM (1 mg/kg S.C. QD, Day 2): 74 ± 5 mm^3
Tumor volume (mm^3), Mean ± SEM (1 mg/kg S.C. QD, Day 4): 85 ± 5 mm^3
Tumor volume (mm^3), Mean ± SEM (1 mg/kg S.C. QD, Day 7): 94 ± 5 mm^3
Tumor volume (mm^3), Mean ± SEM (1 mg/kg S.C. QD, Day 9): 100 ± 7 mm^3
Tumor volume (mm^3), Mean ± SEM (1 mg/kg S.C. QD, Day 11): 80 ± 8 mm^3
Tumor volume (mm^3), Mean ± SEM (1 mg/kg S.C. QD, Day 14): 68 ± 12 mm^3
RTV at day 14 (1 mg/kg S.C. QD): 1.13 ± 0.67
T/C (%) (1 mg/kg S.C. QD): 3.71%
TGI (%) (1 mg/kg S.C. QD): 99.69%
Tumor Size (mm^3) at day 14 (1 mg/kg S.C. QD): 68.23 ± 12.12 mm^3
ILS (%) (1 mg/kg, then 0.3 mg/kg): 131%
MST (1 mg/kg, then 0.3 mg/kg): 37 days
ILS (%) (1 mg/kg): 144%
MST (1 mg/kg): 39 days
Tumor volume (mm^3), Mean ± SEM (3 mg/kg QDx5 then 1 mg/kg QDx9 S.C., 2 cycles, Day 0): 63 ± 5 mm^3
Tumor volume (mm^3), Mean ± SEM (3 mg/kg QDx5 then 1 mg/kg QDx9 S.C., 2 cycles, Day 2): 70 ± 3 mm^3
Tumor volume (mm^3), Mean ± SEM (3 mg/kg QDx5 then 1 mg/kg QDx9 S.C., 2 cycles, Day 4): 83 ± 7 mm^3
Tumor volume (mm^3), Mean ± SEM (3 mg/kg QDx5 then 1 mg/kg QDx9 S.C., 2 cycles, Day 7): 87 ± 8 mm^3
Tumor volume (mm^3), Mean ± SEM (3 mg/kg QDx5 then 1 mg/kg QDx9 S.C., 2 cycles, Day 9): 90 ± 6 mm^3
Tumor volume (mm^3), Mean ± SEM (3 mg/kg QDx5 then 1 mg/kg QDx9 S.C., 2 cycles, Day 11): 79 ± 10 mm^3
Tumor volume (mm^3), Mean ± SEM (3 mg/kg QDx5 then 1 mg/kg QDx9 S.C., 2 cycles, Day 14): 43 ± 4 mm^3
ILS (%) (3 mg/kg, then 1 mg/kg): 131%
MST (3 mg/kg, then 1 mg/kg): 37 days
RTV at day 14 [1]: 1.85 ± 0.82
T/C (%) [1]: 6.05%
TGI (%) [1]: 96.95%
Tumor Size (mm^3) at day 14 [1]: 118.69 ± 21.92 mm^3
RTV at day 14 [2]: 0.69 ± 0.16
T/C (%) [2]: 2.27%
TGI (%) [2]: 101.09%
Tumor Size (mm^3) at day 14 [2]: 42.91 ± 3.89 mm^3
RTV at day 14 [3]: 5.99 ± 2.92
T/C (%) [3]: 19.62%
TGI (%) [3]: 83.19%
Tumor Size (mm^3) at day 14 [3]: 369.41 ± 56.37 mm^3
